Experiments:
[1] = system: human neurons; experiment: Survival of human neurons versus FGF2 concentration with or without DHEAS (FIG. 1); type: cell-based
Description: (§1) GENERAL METHODS. Brain tissue was ethically obtained by informed consent from patients before surgery under protocols approved by the Springfield Committee for Research on Human Subjects and the UC Irvine IRB. […] Rather than using aspiration to remove all tissue, slices of tissue 1-3 mm thick were obtained from cortical access ports or tissue that was marginal to the lesion. Use of electrocautery was kept to a minimum to reduce oxyradicals and other neuron damage. […] Hibernate A contains D-glucose, pyruvate, balanced salts, amino acids, and vitamins. B27 contains 5 antioxidants and 15 other components. […] After transport on ice to a laminar flow sterile hood in the culture laboratory, meninges and white matter were removed from the tissue with a scalpel and forceps in a 35 mm dish in 2 ml transport medium. […] The cell suspension was enriched for neurons by centrifugation on a density gradient of Optiprep (Invitrogen). […] The diluted Optiprep was further diluted with transport medium (v/v) to make a gradient containing 4 steps of 1 ml in a 15 ml centrifuge tube: bottom (0.35:0.65), 0.25:0.75, 0.2:0.8, top (0.15:0.85). Up to 6 ml of cell suspension was layered over the Optiprep step gradient. […] Cells were plated at a density of 320/mm^2 onto glass coverslips coated with polylysine as previously described. Cells were cultured in Neurobasal™ A medium (Invitrogen) with 2 percent B27, 5 ng/ml FGF2 (basic human recombinant fibroblast growth factor, Invitrogen) and 0.5 mM glutamine in a humidified atmosphere of 9 percent O2, and 5 percent CO2 (Forma, Marietta, Ohio). […] EGF (20 ng/ml; murine, Invitrogen) and NT3 (100 ng/ml; recombinant, Regeneron) were added as indicated from 500× stock solutions in 1 percent BSA/PBS. Half of the medium was replaced with fresh medium every 3-4 days.

[2] = system: human cortical brain cells (neurons vs glia); experiment: Adult human cortical brain cells cultured in B27/Neurobasal A, immunostained for neurofilament and GFAP; type: cell-based; conditions: for % GFAP (mean ± S.D.) / % Neurofilament (mean ± S.D.): addition to B27/Neurobasal A, after 6 days
Description: as §1
For immunocytology, cultures were rinsed twice in warm PBS and fixed for 10 minutes in 4 percent paraformaldehyde in PBS. After rinsing twice with PBS, cells for GFAP staining were postfixed for 20 minutes in acetic acid/ethanol (1:9, v/v) before rinsing again with PBS. Non-specific sites were blocked, and cells were permeabilized for 5 minutes in 5 percent normal goat serum, and 0.5 percent Triton X-100. Cells were incubated with primary antibodies for 1 hour at 22° C. in 5 percent goat serum, and 0.05 percent Triton as follows: mouse anti-neurofilament 200 (1:40, Sigma) with rabbit anti-cow GFAP (1:2000, Dako), or mouse anti-MAP2 (1:250, Boeringer-Mannheim) with rabbit anti-tau (1:2000). After rinsing four times with PBS, cells were incubated 1 hour at 22° C. with a rhodamine-conjugate of goat anti-rabbit IgG (heavy+light chain, 1:500, Tago) together with a cy2-conjugate of goat anti-mouse IgG (heavy+light chain, 1:100, Jackson). After rinsing four times in PBS, coverslips were mounted with Aquamount and imaged through a Nikon 60×/1.4 objective using a Spot cooled CCD camera (Diagnostic Instruments).
Human cortical brain tissue was obtained for culture from eleven consecutive surgical cases, including seven tumor cases, three cases of epilepsy, and one case of suprabulbar palsy. Patients ranged in age from 41 to 70 years.
Neuronal Characteristics of Isolated Cells. Cytoskeletal components were used as specific markers to distinguish neurons from glia. Microtubule associated proteins, MAP2 and tau, are generally associated with somatodendritic and axonal regions of neurons, respectively. Neurofilament 200 is a common intermediate filament protein restricted to neurons, and GFAP is restricted to astroglia. All preparations were immunostained for at least one of these markers.

[3] = surgical sample 1, glioma r. temporal, 46 M
[4] = surgical sample 2, tumor r. temporal, 69 M

C[C@]12CC[C@H](OS(=O)(=O)O)CC1=CC[C@@H]1[C@@H]2CC[C@]2(C)C(=O)CC[C@@H]12 [DHEAS, dehydroepiandrosterone 3-sulphate]
lowering of the FGF2 ED50 for survival ([1]; DHEAS at 10 μg/ml): 10 fold
survival at intermediate DHEAS concentrations ([1]; DHEAS at 1 and 3 μg/ml, data not shown): intermediate survival between 0 and 10 μg/ml
survival with FGF2 at lower concentrations (FIG. 1) ([1]; lower FGF2 concentrations): synergistic for survival with FGF2

EGF: trophic factor EGF, murine, Invitrogen (NSYPGCPSSYDGYCLNGGVCMHIESLDSYTCNCVIGYSGDRCQTRDLRWWELR; Epidermal growth factor; UniProt P01132 977-1029, looked up)
survival of neurofilament positive cells versus FGF2 alone ([2]; added in addition to FGF2, sample 4): no more efficacious

FGF2: basic human recombinant fibroblast growth factor, Invitrogen
% GFAP (mean ± S.D.) [2, 3]: 30 ± 7%
% Neurofilament (mean ± S.D.) [2, 3]: 67±7%
% GFAP (mean ± S.D.) [2, 4]: > 80%
% Neurofilament (mean ± S.D.) [2, 4]: < 10%
% Neurofilament (mean ± S.D.) ([2]; surgical sample 3, glioma l. frontal, 41 M): 84 ± 8%
% Neurofilament (mean ± S.D.) ([2]; surgical sample 4, epilepsy l. superior temp. gyrus, 33 F): 16 ± 5%
% Neurofilament (mean ± S.D.) ([2]; surgical sample 5, meningioma r. temporal, 70 µM): 17 ± 10%

From patent publication US20080160006A1, “Nutrient Medium for Maintaining Neural Cells in Injured Nervous System” (priority 2001, published 2008)
